{
  "source": "ChEMBL document CHEMBL3885881",
  "about": "“DrugMatrix”",
  "species_on_record": "Rattus norvegicus",
  "assay": "DrugMatrix - Regimen: Daily Repeat",
  "type": "toxicity, organism-based, Sprague-Dawley",
  "design": "regimen Daily Repeat, gender Male, age 6-8 weeks",
  "conditions": "in vivo, po, 1100 mg/kg, route oral GAVAGE, dose level High, vehicle .5 % CMC; for ABSOLUTE BASOPHIL / ABSOLUTE EOSINOPHIL / ABSOLUTE LYMPHOCYTE / ABSOLUTE MONOCYTE / ABSOLUTE SEGMENTED NEUTROPHIL / BASOPHIL / EOSINOPHIL / ERYTHROCYTE COUNT / HEMATOCRIT / HEMOGLOBIN / LEUKOCYTE COUNT / LYMPHOCYTE / MEAN CORPUSCULAR HEMOGLOBIN / MEAN CORPUSCULAR HEMOGLOBIN CONCENTRATION / MEAN CORPUSCULAR VOLUME / MONOCYTE / NEUTROPHIL / NUCLEATED RED BLOOD CELLS / PLATELET COUNT: tissue Blood; for ALANINE AMINOTRANSFERASE / ALBUMIN / ALKALINE PHOSPHATASE / ASPARTATE AMINOTRANSFERASE / BLOOD UREA NITROGEN / CARBON DIOXIDE / CHLORIDE / CHOLESTEROL / CREATINE PHOSPHOKINASE / CREATININE / GLUCOSE / LACTATE DEHYDROGENASE / LIPASE / PHOSPHORUS / POTASSIUM / SODIUM / TOTAL BILIRUBIN / URIC ACID: tissue Plasma",
  "data": [
    {"smiles": "COc1cc(NS(=O)(=O)c2ccc(N)cc2)nc(OC)n1", "note": "[SULFADIMETHOXINE]", "values": [
      {"measurement": "ABSOLUTE BASOPHIL", "setting": "72 h, time 3 day", "value": 0, "unit": "CELLS/uL"},
      {"measurement": "ABSOLUTE EOSINOPHIL", "setting": "72 h, time 3 day", "value": 176, "unit": "CELLS/uL"},
      {"measurement": "ABSOLUTE LYMPHOCYTE", "setting": "72 h, time 3 day", "value": 8678, "unit": "CELLS/uL"},
      {"measurement": "ABSOLUTE MONOCYTE", "setting": "72 h, time 3 day", "value": 307.33, "unit": "CELLS/uL"},
      {"measurement": "ABSOLUTE SEGMENTED NEUTROPHIL", "setting": "72 h, time 3 day", "value": 1105.33, "unit": "CELLS/uL"},
      {"measurement": "BASOPHIL", "setting": "72 h, time 3 day", "value": 0, "unit": "%"},
      {"measurement": "EOSINOPHIL", "setting": "72 h, time 3 day", "value": 1.67, "unit": "%"},
      {"measurement": "ERYTHROCYTE COUNT", "setting": "72 h, time 3 day", "value": 5.56, "unit": "x10E6/uL"},
      {"measurement": "HEMATOCRIT", "setting": "72 h, time 3 day", "value": 35.03, "unit": "%"},
      {"measurement": "HEMOGLOBIN", "setting": "72 h, time 3 day", "value": 13.43, "unit": "G/DL"},
      {"measurement": "LEUKOCYTE COUNT", "setting": "72 h, time 3 day", "value": 10.27, "unit": "x10E3/uL"},
      {"measurement": "LYMPHOCYTE", "setting": "72 h, time 3 day", "value": 84.67, "unit": "%"},
      {"measurement": "MEAN CORPUSCULAR HEMOGLOBIN", "setting": "72 h, time 3 day", "value": 24.13, "unit": "pg"},
      {"measurement": "MEAN CORPUSCULAR HEMOGLOBIN CONCENTRATION", "setting": "72 h, time 3 day", "value": 38.37, "unit": "G/DL"},
      {"measurement": "MEAN CORPUSCULAR VOLUME", "setting": "72 h, time 3 day", "value": 62.93, "unit": "fL"},
      {"measurement": "MONOCYTE", "setting": "72 h, time 3 day", "value": 3, "unit": "%"},
      {"measurement": "NEUTROPHIL", "setting": "72 h, time 3 day", "value": 10.67, "unit": "%"},
      {"measurement": "NUCLEATED RED BLOOD CELLS", "setting": "72 h, time 3 day", "value": "0 /100WBC"},
      {"measurement": "PLATELET COUNT", "setting": "72 h, time 3 day", "value": 1279, "unit": "x10E3/uL"},
      {"measurement": "ALANINE AMINOTRANSFERASE", "setting": "72 h, time 3 day", "value": 62.67, "unit": "u/L"},
      {"measurement": "ALBUMIN", "setting": "72 h, time 3 day", "value": 4.6, "unit": "G/DL"},
      {"measurement": "ALKALINE PHOSPHATASE", "setting": "72 h, time 3 day", "value": 393.67, "unit": "u/L"},
      {"measurement": "ASPARTATE AMINOTRANSFERASE", "setting": "72 h, time 3 day", "value": 75.67, "unit": "u/L"},
      {"measurement": "BLOOD UREA NITROGEN", "setting": "72 h, time 3 day", "value": 18, "unit": "mg/dL"},
      {"measurement": "CARBON DIOXIDE", "setting": "72 h, time 3 day", "value": 27.67, "unit": "mmol/L"},
      {"measurement": "CHLORIDE", "setting": "72 h, time 3 day", "value": 102.67, "unit": "MEQ/L"},
      {"measurement": "CHOLESTEROL", "setting": "72 h, time 3 day", "value": 67.67, "unit": "mg/dL"},
      {"measurement": "CREATINE PHOSPHOKINASE", "setting": "72 h, time 3 day", "value": 189.67, "unit": "u/L"},
      {"measurement": "CREATININE", "setting": "72 h, time 3 day", "value": 0.32, "unit": "mg/dL"},
      {"measurement": "GLUCOSE", "setting": "72 h, time 3 day", "value": 153.33, "unit": "mg/dL"},
      {"measurement": "LACTATE DEHYDROGENASE", "setting": "72 h, time 3 day", "value": 129.33, "unit": "u/L"},
      {"measurement": "LIPASE", "setting": "72 h, time 3 day", "value": 9.33, "unit": "u/L"},
      {"measurement": "PHOSPHORUS", "setting": "72 h, time 3 day", "value": 12.17, "unit": "mg/dL"},
      {"measurement": "POTASSIUM", "setting": "72 h, time 3 day", "value": 6.03, "unit": "MEQ/L"},
      {"measurement": "SODIUM", "setting": "72 h, time 3 day", "value": 145.53, "unit": "MEQ/L"},
      {"measurement": "TOTAL BILIRUBIN", "setting": "72 h, time 3 day", "value": 0.17, "unit": "mg/dL"},
      {"measurement": "URIC ACID", "setting": "72 h, time 3 day", "value": 1.37, "unit": "mg/dL"},
      {"measurement": "ABSOLUTE BASOPHIL", "setting": "120 h, time 5 day", "value": 0, "unit": "CELLS/uL"},
      {"measurement": "ABSOLUTE EOSINOPHIL", "setting": "120 h, time 5 day", "value": 186.33, "unit": "CELLS/uL"},
      {"measurement": "ABSOLUTE LYMPHOCYTE", "setting": "120 h, time 5 day", "value": 11316.33, "unit": "CELLS/uL"},
      {"measurement": "ABSOLUTE MONOCYTE", "setting": "120 h, time 5 day", "value": 266.33, "unit": "CELLS/uL"},
      {"measurement": "ABSOLUTE SEGMENTED NEUTROPHIL", "setting": "120 h, time 5 day", "value": 1431, "unit": "CELLS/uL"},
      {"measurement": "BASOPHIL", "setting": "120 h, time 5 day", "value": 0, "unit": "%"},
      {"measurement": "EOSINOPHIL", "setting": "120 h, time 5 day", "value": 1.33, "unit": "%"},
      {"measurement": "ERYTHROCYTE COUNT", "setting": "120 h, time 5 day", "value": 5.62, "unit": "x10E6/uL"},
      {"measurement": "HEMATOCRIT", "setting": "120 h, time 5 day", "value": 35.53, "unit": "%"},
      {"measurement": "HEMOGLOBIN", "setting": "120 h, time 5 day", "value": 13.53, "unit": "G/DL"},
      {"measurement": "LEUKOCYTE COUNT", "setting": "120 h, time 5 day", "value": 13.2, "unit": "x10E3/uL"},
      {"measurement": "LYMPHOCYTE", "setting": "120 h, time 5 day", "value": 86, "unit": "%"},
      {"measurement": "MEAN CORPUSCULAR HEMOGLOBIN", "setting": "120 h, time 5 day", "value": 24.1, "unit": "pg"},
      {"measurement": "MEAN CORPUSCULAR HEMOGLOBIN CONCENTRATION", "setting": "120 h, time 5 day", "value": 38.1, "unit": "G/DL"},
      {"measurement": "MEAN CORPUSCULAR VOLUME", "setting": "120 h, time 5 day", "value": 63.17, "unit": "fL"},
      {"measurement": "MONOCYTE", "setting": "120 h, time 5 day", "value": 2, "unit": "%"},
      {"measurement": "NEUTROPHIL", "setting": "120 h, time 5 day", "value": 10.67, "unit": "%"},
      {"measurement": "NUCLEATED RED BLOOD CELLS", "setting": "120 h, time 5 day", "value": "0 /100WBC"},
      {"measurement": "PLATELET COUNT", "setting": "120 h, time 5 day", "value": 1313.67, "unit": "x10E3/uL"},
      {"measurement": "ALANINE AMINOTRANSFERASE", "setting": "120 h, time 5 day", "value": 48.67, "unit": "u/L"},
      {"measurement": "ALBUMIN", "setting": "120 h, time 5 day", "value": 4.57, "unit": "G/DL"},
      {"measurement": "ALKALINE PHOSPHATASE", "setting": "120 h, time 5 day", "value": 294.67, "unit": "u/L"},
      {"measurement": "ASPARTATE AMINOTRANSFERASE", "setting": "120 h, time 5 day", "value": 97, "unit": "u/L"},
      {"measurement": "BLOOD UREA NITROGEN", "setting": "120 h, time 5 day", "value": 21.67, "unit": "mg/dL"},
      {"measurement": "CARBON DIOXIDE", "setting": "120 h, time 5 day", "value": 25.33, "unit": "mmol/L"},
      {"measurement": "CHLORIDE", "setting": "120 h, time 5 day", "value": 102.33, "unit": "MEQ/L"},
      {"measurement": "CHOLESTEROL", "setting": "120 h, time 5 day", "value": 65, "unit": "mg/dL"},
      {"measurement": "CREATINE PHOSPHOKINASE", "setting": "120 h, time 5 day", "value": 679, "unit": "u/L"},
      {"measurement": "CREATININE", "setting": "120 h, time 5 day", "value": 0.26, "unit": "mg/dL"},
      {"measurement": "GLUCOSE", "setting": "120 h, time 5 day", "value": 151.67, "unit": "mg/dL"},
      {"measurement": "LACTATE DEHYDROGENASE", "setting": "120 h, time 5 day", "value": 445, "unit": "u/L"},
      {"measurement": "LIPASE", "setting": "120 h, time 5 day", "value": 8.67, "unit": "u/L"},
      {"measurement": "PHOSPHORUS", "setting": "120 h, time 5 day", "value": 11.87, "unit": "mg/dL"},
      {"measurement": "POTASSIUM", "setting": "120 h, time 5 day", "value": 5.23, "unit": "MEQ/L"},
      {"measurement": "SODIUM", "setting": "120 h, time 5 day", "value": 144.1, "unit": "MEQ/L"},
      {"measurement": "TOTAL BILIRUBIN", "setting": "120 h, time 5 day", "value": 0.1, "unit": "mg/dL"},
      {"measurement": "URIC ACID", "setting": "120 h, time 5 day", "value": 1.4, "unit": "mg/dL"}
    ]}
  ]
}
